Read-outs that look alike come from different tables or passages of the source.
How the values were obtained:
ROCK1 = target: T1, ROCK1 (Homo sapiens, UniProt Q13464); experiment: Rho kinase inhibition assay (IMAP fluorescence polarization), ROCK1; type: biochemical;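 further: kinase reaction run 60 min at room temperature, then phosphorylated substrate captured on IMAP beads for 30 min, with fluorescence polarization read in mP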
T1 construct: purchased Upstate/Chemicon 14-601
Experimental: (§1) Following the pre-incubation, 10 μM ATP was added to initiate the reaction. After 60 minutes at room temperature, Molecular Devices IMAP™ binding solution was added to bind phosphorylated substrate. After 30 minutes of incubation in the presence of the IMAP™ beads, the fluorescence polarization was read and the ratio was reported as mP. IC50 values for compounds and EC50 values for ATP were calculated using the Prism software from Graphpad.

ROCK2 = target: T2, ROCK2 (Homo sapiens, UniProt O75116); experiment: Rho kinase inhibition assay (IMAP fluorescence polarization), ROCK2; type: biochemical;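 further: kinase reaction started with 10 µM ATP and run 60 min at room temperature, then phosphorylated substrate captured on IMAP beads for 30 min and fluorescence polarization read in mP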
T2 construct: purchased Upstate/Chemicon 14-451
Experimental: as §1

human neutrophils = experiment: Human neutrophil chemotaxis induced by fMLP (modified Boyden chamber); type: cell-based
In short: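 Neutrophils from healthy volunteers' blood, isolated by Ficoll-paque centrifugation, dextran sedimentation and hypotonic red-cell lysis. Migration measured in a modified Boyden chamber (3 μm polycarbonate membrane) toward 1 μM fMLP for 1 h at 37° C., 5% CO2. Compounds tested in dose response.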

[1] = tested on: ova-sensitized, ova-challenged mice; experiment: Mouse ovalbumin sensitization model, in vivo anti-inflammatory activity (BALF eosinophils and cytokines)
Experimental: Male BALB/c mice were ordered from Charles River Laboratories (Raleigh, N.C.). The animals were approximately 19 to 21 grams at time of receipt. Upon arrival, the animals were randomized into groups of five males per cage and assigned to a dosing group. Animals were quarantined for 7 days under test conditions. They were observed daily for general health status and ability to adapt to the water bottles. Animals were sensitized on day 0 and 14 of study by an intraperitoneal injection with 20 μg of ovalbumin (ova) and 2.0 mg aluminum hydroxide (alum) which initiates the development of a specific T-helper (Th) cells type 2 resulting in asthmatic animals (denoted as Ova in the figures). One group of animals received an injection of saline to use as control animals (denoted as normal in the figures). […] Aerosol challenge consists of using an Aerogen Aeroneb nebulizer and controller with a particle size of 4-6 μm mass median aerodynamic diameter (MMAD) with a distribution of 400 μl per minute. This aerosol challenge is necessary to target the Th2-driven allergic inflammation in the lower airways.
The anti-inflammatory dosing paradigm (FIG. 3) was utilized to evaluate the anti-inflammatory effects of experimental compounds. […] On day 32 of the experiment, after measurement of airway hyperreactivity, BALF was collected and all animals were anesthetized, bled and euthanized.
Bronchoalveolar lavage fluid (BALF) was collected by infusing 3.0 ml of saline with 10% fetal calf serum into the lungs via the trachea and then withdrawing the fluid. The total amount of cells/ml of BALF fluid was determined via manual cell count on hemocytometer. The BALF was centrifuged, supernatant removed and analyzed for cytokine concentrations as described below, and cell pellet reconstituted in 500 μL of fluid. Cytospin slides were prepared from the cell pellet using 100 μL of fluid and spinning samples for 5 minutes at 5000 rpms in a cytospin centrifuge. Following Hema3 stain, relative percentages of individual leukocytes were determined on a 200 cell count for each sample. The final concentration of individual leukocyte cell types per ml of BALF was determined by multiplication of the relative percentage of individual leukocytes with the total amount of cells/ml of BALF fluid.
The concentrations of cytokines in the BALF samples were determined using commercially available Bio-plex kits (Bio-Rad) for the detection of mouse IL-5, IL-13, and Eotaxin. The analysis of cytokine levels was measured using the Bio-Plex 200 (Bio-Rad) system according to the manufacturer's instructions.

[2] = tested on: ova-sensitized, ova-challenged mice; experiment: Prevention of airway hyperreactivity (Penh, methacholine) in mouse ovalbumin sensitization model; type: in vivo
Experimental: The anti-inflammatory dosing paradigm consists of dosing the animals once a day starting on day 27 and finishing on either day 30 or 31 (1 hr prior to the aerosolized ovalbumin challenges on days 28 to 30) but not on day 32 when hyperreactivity evaluation occurs. […] Exposure to the methacholine doses consisted of a 3 minute period during which a nebulizer was aerosolizing the methacholine and an additional 3 minute period following the cessation of nebulization. […] Enhanced pause (Penh), a unitless index of airway hyperreactivity, is derived from the expiratory side of the respiratory waveform measured via the plethysmograph and is used as an indirect measure of airway resistance and hyperreactivity. […] Following the methacholine dose response, BALF was collected and all animals were anesthetized, bled and euthanized. […] The Penh value at each of the dose levels of methacholine represents the 6-minute average response. Change from baseline (CFB) in Penh was calculated at each methacholine dose and the area under the curve (AUC) for these CFB values was calculated using the trapezoidal rule. This same approach was applied for each mouse across multiple experiments. […] Data from equal experimental conditions across experiments performed on different days were pooled for statistical analysis and data reporting. […] A random intercept for each experiment was assumed to account for possible similarities of the results obtained from a given experiment (i.e., as a “blocking effect”). […] For FIG. 9, linear AUC values from compound treated mice were reported as a percent of linear AUC values from vehicle-treated ovalbumin-sensitized/ovalbumin-challenged (asthmatic) mice.

human monocytes = experiment: Human monocyte cytokine secretion assay (LPS-stimulated); type: cell-based; conditions: average percent of stimulated IL-1β secretion from human monocytes at 10 μM of test compound
Experimental: Peripheral blood from healthy human volunteers was collected and the monocytes isolated via Ficoll-paque density centrifugation. […] The cells were allowed to pre-incubate with test compound at the indicated concentration for 30 minutes (37° C., 5% CO2, humidified air); after which the supernatant was removed and media containing compound and 1 ng/mL LPS was added. Cells were allowed to incubate with compounds and LPS for 4 hours at 37° C. after which the supernatant was removed and stored at −80° C. Cytokine concentrations in the supernatant were determined using commercially available Bio-Rad Bio-plex™ kits according the manufacturer's instructions.

LPS-challenged mice = experiment: LPS-induced neutrophilia and cytokine production assay; type: in vivo, mouse; conditions: intratracheal administration; FIG. 11B
Experimental: Male BALB/c mice, approximately 19 to 21 grams, were ordered from Charles River Laboratories (Raleigh, N.C.). All animals were challenged with aerosolized LPS (10 μg/ml) for 25 minutes on study day 0. LPS aerosol was generated using an Aerogen Aeroneb nebulizer and controller providing a flow of 400 μl/min and a particle size of 2-4 μm MMAD. Rolipram was administered i.p at 20 mg/kg. […] Four hours following LPS challenge, BALF was collected using a total of 3 ml of 0.9% sodium chloride containing 10% fetal calf serum. Total cell counts were determined using the Coulter Counter. For differential evaluations, BALF was centrifuged and cytospin slides prepared and stained with Hema3 stain. Manual leukocyte counts were then completed on 200 cells. The final concentration of individual leukocyte cell types per ml of BALF was determined by multiplication of the relative percentage of individual leukocytes with the total amount of cells/ml of BALF fluid. The concentration of IL-1β in the BALF samples was determined using commercially available Bio-plex kits (Bio-Rad). The analysis of cytokine levels was measured using the Bio-Plex 200 (Bio-Rad) system according to the manufacturer's instructions.

[3] = tested on: A-10 rat thoracic aorta cells; experiment: PDGF-stimulated smooth muscle cell proliferation assay (BrdU incorporation); type: cell-based; conditions: for Percent of PDGF Induced Proliferation at 1 μM Avg / Percent of PDGF Induced Proliferation at 10 μM Avg: A-10 cells, 10 ng/mL PDGF, BrdU incorporation, percent of total challenge-stimulated proliferation; for Percent of PDGF Induced Proliferation at 1 μM Avg: 1 μM test compound; for Percent of PDGF Induced Proliferation at 10 μM Avg: 10 μM test compound;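 on all read-outs here: cells kept in serum-free medium, BrdU allowed to incorporate for 24 h, then incorporated label detected fluorometrically with an anti-BrdU antibody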
Experimental: Effects on cell proliferation were measured using a bromodeoxyuridine (BrdU) incorporation assay. […] Serum free media containing 01% BSA was added to the cells. 24 hours later the media was removed and replaced with warmed serum free media. […] Proliferation was then monitored using the BrdU Cell Proliferation Assay, HTS (Calbiochem cat. #t HTS01). BrdU was allowed to incorporate into cells for 24 hours prior to the addition of fixative/denaturing solution and the fluorometric detection of incorporated BrdU using a BrdU antibody as per manufacturer's directions. Data are reported as a percent of the PDGF-stimulated BrdU incorporation.

Akt3 human enzyme = target: T3, Akt3 human enzyme (Homo sapiens, UniProt Q9Y243); experiment: Akt3 inhibition assay (IMAP FP); type: biochemical;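 further: kinase reaction run 60 min at room temperature after 30 µM ATP start, phosphorylated substrate captured on IMAP beads and read as fluorescence polarization (mP)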
T3 construct: purchased Upstate Chemicon 14-502
Experimental: (§2) Inhibition of Akt3 and p70S6K activity was determined using the IMAP™ FP Progressive Binding Kit (Molecular Devices product number R8127). […] Following the pre-incubation, 30 μM ATP was added to initiate the reaction. After 60 minutes at RT, Molecular Devices IMAP™ binding solution was added to bind phosphorylated substrate. After 30 minutes of incubation in the presence of the IMAP™ beads the fluorescence polarization was read and the ratio was reported as mP. IC50 results were calculated using the Prism software from Graphpad. The Ki values were determined according to the following formula: Ki=IC50/(1+([ATP Challenge]/EC50 ATP)).

p70S6K human enzyme = target: T4, p70S6K human enzyme (Homo sapiens, UniProt P23443, T412E); experiment: p70S6K inhibition assay (IMAP FP); type: biochemical;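 further: kinase reaction run at room temperature, phosphorylated substrate captured on IMAP beads and read as fluorescence polarization in mP, IC50 then converted to Ki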
T4 construct: purchased Upstate Chemicon 14-486
Experimental: as §2

[4] = Rat oral pharmacokinetics (plasma); type: in vivo; conditions: 20-30 μmol/kg
[5] = Compound concentrations in lungs of ova-sensitized, ova-challenged mice post IP, PO and IT administration; type: in vivo; conditions: male, Balb/c, mouse, lung, n = 9 or 10, read-out: Lung concentration (plasma corrected); for concentration at 3 h: BD model, time point 3 h
Experimental: Additionally, compound concentrations were determined in the plasma and lungs of male, ovalbumin-sensitized, Balb/c mice from a murine model of asthma. Test compounds were formulated in water or 1% polysorbate 80 and dosed at 15 μmol/kg for intraperitoneal (IP) or oral (PO) administration or formulated for intratracheal (IT) administration and dosed at 5 μmol/kg, which directly targets the lungs. Following completion of the in vivo study, mice were euthanized and blood and plasma collected approximately 2.5-3 hours post administration of test compound for bronchodialator (BD) studies and 24 hours post administration for anti-inflamatory (AI) studies. Lungs were homogenized in Matrix A lysing tubes using a FastPrep 24 tissue and cell homogenizer (MP Biomedicals, Solon, Ohio). Both plasma samples and lung extracts were assayed for compound concentrations using an on-line, solid phase extraction LC/MS/MS system. The actual lung tissue concentrations of each compound in mouse were extrapolated from the lung and plasma concentrations, data are shown in Table 11. The results of a set of experiments using unsensitized mice and collecting only plasma 15 minutes post administration of test compounds are shown in Table 12.

[6] = Compound plasma concentrations in unsensitized mice at 15 min post administration; type: in vivo; conditions: mouse
murine eosinophils = experiment: Murine eosinophil chemotaxis induced by eotaxin; type: cell-based, mouse; conditions: 10 nM eotaxin challenge; FIG. 1
Experimental: Bronchoalveolar lavage was collected from ovalbumin sensitized and challenged mice in a volume of 2.5 mL lavage buffer. The lavage buffer was 0.9% saline with 10% fetal bovine serum. The pooled lavages were maintained on ice until use. The murine eosinophils were isolated using MACS cell separation (Miltenyi Biotech) by depletion of B cells and T cells by positive selection following incubation with antibody conjugated magnetic beads specific for CD45-R (B220) and CD90 (Thy 1.2), which bind B cells and T cells, respectively.
Eosinophil chemotaxis was assessed using a modified Boyden Chamber (Neuroprobe, 96-well) with a 5 μm pore membrane. The ability of the tested compounds to block chemotaxis induced by a 10 nM eotaxin challenge (mouse) or 1 nM eotaxin challenge (human) during one hour incubation at 37° C. with 5% CO2 was assessed. Chemotaxis was quantified via microscopy by counting the number of migrated cells in at least 3 view fields per treatment.

human eosinophils = experiment: Human eosinophil chemotaxis induced by eotaxin; type: cell-based; conditions: 1 nM eotaxin challenge; FIG. 2
Excerpt: Peripheral blood from healthy human volunteers was collected and the PMNs separated via Ficoll-paque density centrifugation followed by hypotonic lysis of the red blood cells. Subsequently, the human eosinophils were isolated from the cell suspension via StemCell Technologies Human Eosinophil Enrichment kit (Cat. No 19256) according to the manufacturer's recommendations. Briefly, unwanted cells were specifically labeled with dextran-coated magnetic nanoparticles using bispecific Tetrameric Antibody Complexes (TAC) directed against cell surface antigens on human blood cells: […] The unwanted cells are then separated from the unlabelled eosinophils using the EasySep® magnetic isolation procedure.

[7] = 10 μM ATP, read-out: ROCK2 Ki, Avg
[8] = Neutrophil, 1 h, 1 μM fMLP challenge, one hour, read-out: Chemotaxis Avg. IC50
[9] = average IC50 for inhibition of fMLP-induced neutrophil chemotaxis, read-out: Chemotaxis IC50
[10] = 30 μM ATP, Ki=IC50/(1+([ATP Challenge]/EC50 ATP)), read-out: Akt3 Ki, Avg
[11] = 30 μM ATP, Ki=IC50/(1+([ATP Challenge]/EC50 ATP)), read-out: p70S6K Ki, Avg
[12] = average Ki, read-out: p70S6K Ki

T1 sequence (Q13464 17-535 limits assumed): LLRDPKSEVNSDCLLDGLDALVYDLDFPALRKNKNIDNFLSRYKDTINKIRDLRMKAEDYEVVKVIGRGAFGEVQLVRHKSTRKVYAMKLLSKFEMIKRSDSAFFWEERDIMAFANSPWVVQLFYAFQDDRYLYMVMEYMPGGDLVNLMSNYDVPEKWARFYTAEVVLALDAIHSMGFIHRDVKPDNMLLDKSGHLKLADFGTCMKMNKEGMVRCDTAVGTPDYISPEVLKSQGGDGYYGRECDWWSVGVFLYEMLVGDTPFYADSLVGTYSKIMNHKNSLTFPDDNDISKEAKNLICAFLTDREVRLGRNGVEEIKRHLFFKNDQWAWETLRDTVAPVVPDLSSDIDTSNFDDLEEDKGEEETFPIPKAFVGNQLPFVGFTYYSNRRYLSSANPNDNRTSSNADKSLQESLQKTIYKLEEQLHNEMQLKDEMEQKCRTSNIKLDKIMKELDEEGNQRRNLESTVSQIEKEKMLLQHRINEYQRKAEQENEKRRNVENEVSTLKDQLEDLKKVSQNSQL
T4 sequence (P23443 1-421 T412E limits assumed): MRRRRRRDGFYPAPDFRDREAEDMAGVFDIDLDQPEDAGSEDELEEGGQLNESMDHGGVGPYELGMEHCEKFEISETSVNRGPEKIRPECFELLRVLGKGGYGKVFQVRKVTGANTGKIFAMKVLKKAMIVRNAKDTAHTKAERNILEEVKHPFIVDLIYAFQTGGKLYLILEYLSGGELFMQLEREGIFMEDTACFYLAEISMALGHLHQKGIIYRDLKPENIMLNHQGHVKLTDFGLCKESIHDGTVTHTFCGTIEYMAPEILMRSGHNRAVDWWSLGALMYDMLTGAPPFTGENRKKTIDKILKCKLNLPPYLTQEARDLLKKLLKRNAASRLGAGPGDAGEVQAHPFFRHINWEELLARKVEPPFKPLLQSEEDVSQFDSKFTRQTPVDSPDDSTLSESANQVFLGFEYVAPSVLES
T3 sequence (Q9Y243 whole entry): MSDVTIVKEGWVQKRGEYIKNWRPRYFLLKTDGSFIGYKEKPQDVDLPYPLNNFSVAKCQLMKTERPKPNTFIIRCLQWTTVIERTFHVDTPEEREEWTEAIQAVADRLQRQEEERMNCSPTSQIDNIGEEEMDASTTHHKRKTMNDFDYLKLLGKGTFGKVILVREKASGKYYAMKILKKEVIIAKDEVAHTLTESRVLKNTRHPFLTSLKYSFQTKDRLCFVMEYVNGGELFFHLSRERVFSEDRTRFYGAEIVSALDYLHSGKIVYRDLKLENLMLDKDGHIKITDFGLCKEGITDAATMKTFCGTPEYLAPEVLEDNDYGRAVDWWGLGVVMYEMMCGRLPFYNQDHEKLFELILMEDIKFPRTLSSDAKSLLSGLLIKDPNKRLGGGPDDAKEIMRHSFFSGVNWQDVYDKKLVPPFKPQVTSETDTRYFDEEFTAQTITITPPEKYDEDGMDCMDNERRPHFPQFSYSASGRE
T2 sequence (O75116 11-552 limits assumed): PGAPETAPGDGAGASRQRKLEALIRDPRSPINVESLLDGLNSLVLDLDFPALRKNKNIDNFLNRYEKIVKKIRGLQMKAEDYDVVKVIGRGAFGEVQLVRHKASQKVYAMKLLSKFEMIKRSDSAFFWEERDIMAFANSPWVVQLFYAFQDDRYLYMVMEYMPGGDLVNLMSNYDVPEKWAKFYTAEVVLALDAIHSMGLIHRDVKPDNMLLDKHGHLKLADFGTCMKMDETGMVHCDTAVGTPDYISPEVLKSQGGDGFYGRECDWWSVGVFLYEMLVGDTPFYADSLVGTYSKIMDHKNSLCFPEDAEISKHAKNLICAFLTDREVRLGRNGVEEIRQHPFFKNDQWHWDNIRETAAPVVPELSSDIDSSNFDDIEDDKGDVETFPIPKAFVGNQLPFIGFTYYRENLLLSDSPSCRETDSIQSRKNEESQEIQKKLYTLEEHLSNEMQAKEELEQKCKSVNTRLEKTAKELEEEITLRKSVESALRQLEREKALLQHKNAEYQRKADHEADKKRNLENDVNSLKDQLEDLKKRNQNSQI

## CS(=O)(=O)Nc1cccc(CN2CCCC(Nc3ccc4[nH]ncc4c3)C2)c1 (stereo in doubt) [Compound 1.091, (S)-N-(3-((3-(1H-indazol-5-ylamino)piperidin-1-yl)methyl)phenyl)methanesulfonamide]
ROCK1; Avg, 10 μM ATP
  Ki: 71.4 nM
ROCK1; average Ki
  Ki: 71.4 nM
ROCK2; [7]
  Ki: 3.3 nM
Human neutrophils; [8]
  IC50: 2330 nM
Human neutrophils; [9]
  IC50: 2300 nM
[1]; dosed i.t. to day 30, anti-inflammatory dosing paradigm, FIG. 5
  eosinophils (eosinophil influx, BALF): reduction of eosinophils
[2]; intratracheal once a day during days 27 to 30, FIG. 9
  airway hyperreactivity: prevention of airway hyperreactivity
Human monocytes
  IL-1β %: 165.5%
LPS-challenged mice
  IL-1β levels in BALF from LPS-challenged mice: reduction
[3]
  Percent of PDGF Induced Proliferation at 1 μM Avg: 85.7%
  Percent of PDGF Induced Proliferation at 10 μM Avg: 69.3%
[3]; average percent of PDGF stimulated proliferation at 1 μM of test compound
  Proliferation at 1 μM, %: 85.7%
Akt3 human enzyme; [10]
  Ki: 5390 nM
Akt3 human enzyme; average Ki, read-out: Akt3 Ki
  Ki: 5390 nM
p70S6K human enzyme; [11]
  Ki: 1420 nM
p70S6K human enzyme; [12]
  Ki: 1420 nM
[4]; mean n = 3
  AUC (0-last): BLQ
  Cmax: BLQ
  Tmax: BLQ
  Vz_F: BLQ
  t½: BLQ
[5]; intraperitoneal, IP 15 μmol/kg
  concentration at 3 h: 117 nM
[6]; plasma, unsensitized mice, 15 min post administration, mean n = 3, read-out: Plasma Mean Concentration
  concentration at 15 min: 334 nM

## CS(=O)(=O)Nc1cccc(CN2CC[C@@H](Nc3cccc4cnccc34)C2)c1 [Compound 2.038, (R)-N-(3-((3-(isoquinolin-5-ylamino)pyrrolidin-1-yl)methyl)phenyl)methanesulfonamide]
ROCK1; Avg, 10 μM ATP
  Ki: 28.9 nM
ROCK1; average Ki
  Ki: 28.9 nM
ROCK2; [7]
  Ki: 6.3 nM
ROCK2; average Ki, read-out: ROCK2 Ki
  Ki: 6.3 nM
Human neutrophils; [8]
  IC50: 734 nM
Human neutrophils; [9]
  IC50: 700 nM
Murine eosinophils
  eotaxin-induced chemotactic response of murine eosinophils: inhibited
Human eosinophils
  eotaxin-induced chemotactic response of human eosinophils: inhibited
[1]; 15 μmol/kg/oral on days 27 to 31, FIG. 6
  concentration of IL-5 in BALF: reduced levels
[1]; 15 μmol/kg/oral on days 27 to 31, FIG. 7
  concentration of Eotaxin in BALF: reduced levels
[1]; 15 μmol/kg/oral on days 27 to 31, FIG. 8
  concentration of IL-13 in BALF: reduced levels
[1]; dosed orally to day 31, anti-inflammatory dosing paradigm, FIG. 4
  Airway eosinophil infiltration (eosinophils per ml of BALF): reduced
[2]; 15 μmol/kg/oral, days 27 to 31
  log10AUC (Penh): 1.8981
[2]; oral 15 μMol/kg once a day during days 27 to 31
  airway hyperreactivity to methacholine dosed on Day 32: prevention of airway hyperreactivity
[3]
  Percent of PDGF Induced Proliferation at 1 μM Avg: 58.6%
  Percent of PDGF Induced Proliferation at 10 μM Avg: 62.7%
Akt3 human enzyme; [10]
  Ki: 2550 nM
Akt3 human enzyme; average Ki, read-out: Akt3 Ki
  Ki: 2550 nM
p70S6K human enzyme; [11]
  Ki: 1400 nM
p70S6K human enzyme; [12]
  Ki: 1400 nM
[4]; mean n = 3
  Vz_F: 22.5 L/kg
[4]; male, CD Sprague Dawley, mean n = 3
  AUC(0-t): 1.28 µM·h
[4]; male, CD Sprague Dawley, mean n = 3, read-out: Cmax
  Cmax: 1040 nM
[4]; male, CD Sprague Dawley, mean n = 3, read-out: Tmax
  Tmax: 30 min
[4]; male, CD Sprague Dawley, mean n = 3, read-out: t½ (converted)
  half-life: 42.6 min
[5]; AI model, PO 15 μmol/kg, time point 24 h
  concentration at 24 h: 11 nM
[5]; PO 15 μmol/kg
  concentration at 3 h: 440 nM
[6]; 15 μmol/kg, mean compound plasma concentration in mice at 15 minutes post oral administration, read-out: Mouse Oral PK
  concentration at 15 min: 729 nM
